US6737383B1, “Herbicidal oxadiazolidines” (priority 1999, dated 2004)

Legend:
sugar beet = experiment: Test B pre/postemergence sugar beet; assay type: in vivo, Beta vulgaris
How it was run: (§1)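 Test chemicals in a non-phytotoxic solvent mixture with surfactant were sprayed preemergence onto planted seeds and postemergence onto plants 2 to 18 cm tall (1- to 4-leaf stage). After twelve to sixteen days in a greenhouse, injury was visually rated against untreated controls from 0 (no effect) to 10 (complete control).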

pigweed = experiment: Test B pre/postemergence pigweed; assay type: in vivo, Amaranthus retroflexus
How it was run: as §1

smallflower flatsedge = experiment: Test B flood test smallflower flatsedge; assay type: in vivo, Cyperus difformis
How it was run: (§2)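 Each value is a visual injury score relative to controls, with 10 meaning complete control and 0 no effect. Evaluation took place twelve to sixteen days after the 2-leaf-stage plants were treated and kept in the greenhouse.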

bedstraw = experiment: Test B pre/postemergence bedstraw; assay type: in vivo, Galium aparine
How it was run: as §1

soybean = experiment: Test B pre/postemergence soybean; assay type: in vivo, Glycine max
How it was run: as §1

surinam grass = experiment: Test B pre/postemergence surinam grass; assay type: in vivo, Brachiaria decumbens
How it was run: as §1

crabgrass = experiment: Test B pre/postemergence crabgrass; assay type: in vivo, Digitaria sanguinalis
How it was run: as §1

rape = experiment: Test B pre/postemergence rape; assay type: in vivo, Brassica napus
How it was run: as §1

corn = experiment: Test B pre/postemergence corn; assay type: in vivo, Zea mays
How it was run: as §1

wheat = experiment: Test B pre/postemergence wheat; assay type: in vivo, Triticum aestivum
How it was run: as §1

purple nutsedge = experiment: Test B pre/postemergence purple nutsedge; assay type: in vivo, Cyperus rotundus
How it was run: as §1

blackgrass = experiment: Test B pre/postemergence blackgrass; assay type: in vivo, Alopecurus myosuroides
How it was run: as §1

wild oat = experiment: Test B pre/postemergence wild oat; assay type: in vivo, Avena fatua
How it was run: as §1

cocklebur = experiment: Test B pre/postemergence cocklebur; assay type: in vivo, Xanthium strumarium
How it was run: as §1

velvetleaf = experiment: Test B pre/postemergence velvetleaf; assay type: in vivo, Abutilon theophrasti
How it was run: as §1

bamyardgrass = experiment: Test B flood test barnyardgrass; assay type: in vivo, Echinochloa crus-galli
How it was run: as §2

[1] = Postemergence, Rate 125 g/ha, scale of 0 to 10 where 0 is no effect and 10 is complete control
[2] = Preemergence, Rate 62 g/ha, scale 0 to 10 (0 no effect, 10 complete control)
[3] = Preemergence, Rate 125 g/ha, 0 is no effect, 10 is complete control
[4] = Preemergence, Rate 250 g/ha, scale 0 to 10, 0 is no effect, 10 is complete control
[5] = Preemergence, Rate 500 g/ha, scale 0 to 10 (0 no effect, 10 complete control)
[6] = Rate 62 g/ha, Postemergence, scale of 0 to 10 where 0 is no effect and 10 is complete control
[7] = Rate 250 g/ha, Postemergence, scale 0 to 10, 0 is no effect, 10 is complete control
[8] = Rate 500 g/ha, Postemergence, scale 0 to 10
[9] = Postemergence (flood test species), Rate 125 g/ha, scale of 0 to 10 where 0 is no effect and 10 is complete control
[10] = Rate 62 g/ha, Postemergence section, flood test species, scale of 0 to 10 where 0 is no effect and 10 is complete control
[11] = Rate 250 g/ha, Postemergence (flood test), scale 0 to 10, 0 is no effect, 10 is complete control

## Cc1ccccc1Cn1c(=O)on(C(=O)N(c2ccc(Cl)cc2)C(C)C)c1=O [Compound 136]
Sugar beet; [1]
  Sugarbeets plant response rating: 4
Sugar beet; [2]
  Sugarbeets plant response rating: 4
Sugar beet; [3]
  Sugarbeets plant response rating (0 to 10 scale): 4
Sugar beet; [4]
  Sugarbeets plant response rating: 8
Sugar beet; [5]
  Sugarbeets plant response rating: 9
Sugar beet; [6]
  Sugarbeets plant response rating: 3
Sugar beet; [7]
  Plant response rating, Sugarbeets: 7
Sugar beet; [8]
  Sugarbeets plant response rating: 8
pigweed; [1]
  Redroot pigweed plant response rating: 4
pigweed; [2]
  Redroot pigweed plant response rating: 7
pigweed; [3]
  Redroot pigweed plant response rating (0 to 10 scale): 8
pigweed; [4]
  Redroot pigweed plant response rating: 10
pigweed; [5]
  Redroot pigweed plant response rating: 10
pigweed; [6]
  Redroot pigweed plant response rating: 3
pigweed; [7]
  Plant response rating, Redroot pigweed: 6
pigweed; [8]
  Redroot pigweed plant response rating: 6
Smallflower flatsedge; [9]
  S. Flatsedge plant response rating: 0
Smallflower flatsedge; [10]
  S. Flatsedge plant response rating: 0
Smallflower flatsedge; [11]
  Plant response rating, S. Flatsedge: 0
Smallflower flatsedge; Rate 500 g/ha, listed under Postemergence (flood test species), scale 0 to 10
  S. Flatsedge plant response rating: 0
bedstraw; [1]
  Bedstraw plant response rating: 5
bedstraw; [3]
  Bedstraw plant response rating (0 to 10 scale): 0
bedstraw; [4]
  Bedstraw plant response rating: 0
bedstraw; [5]
  Bedstraw plant response rating: 0
bedstraw; [6]
  Bedstraw plant response rating: 2
bedstraw; [7]
  Plant response rating, Bedstraw: 8
soybean; [1]
  Soybean plant response rating: 4
soybean; [2]
  Soybean plant response rating: 0
soybean; [3]
  Soybean plant response rating (0 to 10 scale): 0
soybean; [4]
  Soybean plant response rating: 0
soybean; [5]
  Soybean plant response rating: 0
soybean; [6]
  Soybean plant response rating: 3
soybean; [7]
  Plant response rating, Soybean: 4
soybean; [8]
  Soybean plant response rating: 5
Surinam grass; [1]
  B. signalgrass plant response rating: 0
Surinam grass; [2]
  B. signalgrass plant response rating: 3
Surinam grass; [3]
  B. signalgrass plant response rating (0 to 10 scale): 3
Surinam grass; [4]
  B. signalgrass plant response rating: 5
Surinam grass; [5]
  B. signalgrass plant response rating: 5
Surinam grass; [6]
  B. signalgrass plant response rating: 0
Surinam grass; [7]
  Plant response rating, B. signalgrass: 1
Surinam grass; Rate 500 g/ha, Postemergence, scale of 0 to 10 where 0 is no effect and 10 is complete control
  B. signalgrass plant response rating: 3
crabgrass; [1]
  Crabgrass plant response rating: 2
crabgrass; [2]
  Crabgrass plant response rating: 0
crabgrass; [3]
  Crabgrass plant response rating (0 to 10 scale): 4
crabgrass; [4]
  Crabgrass plant response rating: 7
crabgrass; [5]
  Crabgrass plant response rating: 8
crabgrass; [6]
  Crabgrass plant response rating: 1
crabgrass; [7]
  Plant response rating, Crabgrass: 8
crabgrass; [8]
  Crabgrass plant response rating: 9
rape; [1]
  Rape plant response rating: 0
rape; [2]
  Rape plant response rating: 0
rape; [3]
  Rape plant response rating (0 to 10 scale): 0
rape; [4]
  Rape plant response rating: 0
rape; [5]
  Rape plant response rating: 0
rape; [6]
  Rape plant response rating: 0
rape; [7]
  Plant response rating, Rape: 2
rape; [8]
  Rape plant response rating: 4
corn; [1]
  Corn plant response rating: 0
corn; [2]
  Corn plant response rating: 0
corn; [3]
  Corn plant response rating (0 to 10 scale): 0
corn; [4]
  Corn plant response rating: 0
corn; [5]
  Corn plant response rating: 0
corn; [6]
  Corn plant response rating: 0
corn; [7]
  Plant response rating, Corn: 0
corn; [8]
  Corn plant response rating: 0
wheat; [1]
  Wheat plant response rating: 0
wheat; [2]
  Wheat plant response rating: 0
wheat; [3]
  Wheat plant response rating (0 to 10 scale): 0
wheat; [4]
  Wheat plant response rating: 0
wheat; [5]
  Wheat plant response rating: 0
wheat; [6]
  Wheat plant response rating: 0
wheat; [7]
  Plant response rating, Wheat: 0
wheat; [8]
  Wheat plant response rating: 0
Purple nutsedge; [1]
  Nutsedge plant response rating: 0
Purple nutsedge; [2]
  Nutsedge plant response rating: 0
Purple nutsedge; [3]
  Nutsedge plant response rating (0 to 10 scale): 0
Purple nutsedge; [4]
  Nutsedge plant response rating: 0
Purple nutsedge; [6]
  Nutsedge plant response rating: 0
Purple nutsedge; [7]
  Plant response rating, Nutsedge: 0
Purple nutsedge; [8]
  Nutsedge plant response rating: 0
blackgrass; [1]
  Blackgrass plant response rating: 0
blackgrass; [2]
  Blackgrass plant response rating: 0
blackgrass; [3]
  Blackgrass plant response rating (0 to 10 scale): 4
blackgrass; [4]
  Blackgrass plant response rating: 4
blackgrass; [5]
  Blackgrass plant response rating: 6
blackgrass; [6]
  Blackgrass plant response rating: 0
blackgrass; [7]
  Plant response rating, Blackgrass: 3
blackgrass; [8]
  Blackgrass plant response rating: 5
Wild oat; [1]
  Wild oats plant response rating: 0
Wild oat; [2]
  Wild oats plant response rating: 0
Wild oat; [3]
  Wild oats plant response rating (0 to 10 scale): 0
Wild oat; [4]
  Wild oats plant response rating: 0
Wild oat; [5]
  Wild oats plant response rating: 3
Wild oat; [6]
  Wild oats plant response rating: 0
Wild oat; [7]
  Plant response rating, Wild oats: 0
Wild oat; [8]
  Wild oats plant response rating: 3
cocklebur; [1]
  Cocklebur plant response rating: 2
cocklebur; [2]
  Cocklebur plant response rating: 0
cocklebur; [3]
  Cocklebur plant response rating (0 to 10 scale): 0
cocklebur; [4]
  Cocklebur plant response rating: 0
cocklebur; [6]
  Cocklebur plant response rating: 1
cocklebur; [7]
  Plant response rating, Cocklebur: 2
cocklebur; [8]
  Cocklebur plant response rating: 4
velvetleaf; [1]
  Velvetleaf plant response rating: 0
velvetleaf; [2]
  Velvetleaf plant response rating: 0
velvetleaf; [3]
  Velvetleaf plant response rating (0 to 10 scale): 0
velvetleaf; [4]
  Velvetleaf plant response rating: 0
velvetleaf; [5]
  Velvetleaf plant response rating: 4
velvetleaf; [6]
  Velvetleaf plant response rating: 0
velvetleaf; [7]
  Plant response rating, Velvetleaf: 0
velvetleaf; [8]
  Velvetleaf plant response rating: 2
bamyardgrass; [9]
  Barnyardgrass plant response rating: 0
bamyardgrass; [10]
  Barnyardgrass plant response rating: 0
bamyardgrass; [11]
  Plant response rating, Barnyardgrass: 0
bamyardgrass; Rate 500 g/ha, listed under Postemergence (flood test species), scale 0 to 10, 0 no effect, 10 complete control
  Barnyardgrass plant response rating: 0
